Experimental data reported in patent publication US11147272B2, “Pyridone compounds and agricultural and horticultural fungicides comprising the same as active ingredients” (MITSUI CHEMICALS AGRO, INC., priority 2017, dated 2021).

How the values were obtained:
[1] = test system: Plasmopara viticola; assay: Test Example G: Downy mildew on vine; settings: for Test G control value: 7 to 10 days after inoculation; for Test G control value class: Downy mildew on vine (Neomuscat), 2.5 ml/pot, assessed 7 to 10 days after inoculation; for pest or weed control at 250 ppm: Plasmopara viticola, topical, read-out: Test G control value class
[2] = test system: Botrytis cinerea; assay: Test Example B: Gray mold on tomato; settings: for Test B control value class: class of control value; for pest or weed control at 250 µg/mL: Botrytis cinerea, in Solanum lycopersicum, topical, read-out: Test B control value class
[3] = test system: Phytophthora infestans; assay: whole plant or invertebrate; type: in vivo; settings: for Test F control value class: class of control value; for pest or weed control at 250 µg/mL: Phytophthora infestans, in Solanum lycopersicum, topical, read-out: Test F control value class
[4] = test system: Blumeria graminis f. sp. hordei; assay: Test Example D: Powdery mildew on barley; settings: for Test D control value class: class of control value; for pest or weed control at 250 µg/mL: Blumeria graminis, in Hordeum vulgare, topical, read-out: Test D control value class
[5] = test system: Colletotrichum orbiculare; assay: Test Example H: Anthracnose on cucumber; settings: for Test H control value: 6 to 10 days after inoculation; for Test H control value class: Anthracnose on cucumber (Sagami Hanjiro), 2.5 ml/pot, assessed 6 to 10 days after inoculation; for pest or weed control at 250 ppm: Colletotrichum orbiculare, in Cucumis sativus, topical, read-out: Test H control value class
[6] = test system: Puccinia recondita; assay: Test Example E: Brown rust on wheat; type: in vivo; settings: for Test E control value class / pest or weed control at 250 µg/mL: class of control value; for pest or weed control at 250 µg/mL: Puccinia recondita, topical, read-out: Test E control value class
[7] = test system: Alternaia brassicicola; assay: Test Example C: Alternaria sooty spot on cabbage; type: in vivo; settings: for Test C control value class / pest or weed control at 250 µg/mL: class of control value; for pest or weed control at 250 µg/mL: Brassica oleracea, topical, read-out: Test C control value class
Text: Seeds of a test plant (cabbage variety: Shikidori) were planted and cultivated until the cotyledons extended.
<Control Value> Control value=100{1−(n/3)}

[8] = test system: Magnaporthe grisea; assay: whole plant or invertebrate; type: in vivo; settings: for Test A control value class: class of control value; for pest or weed control at 250 µg/mL: Pyricularia oryzae, in Oryza sativa, read-out: Test A control value class
[9] = 250 ppm drug solution sprayed (2.5 ml/pot), grape Neomuscat
[10] = 250 ppm drug solution sprayed on test plant
[11] = 250 ppm drug solution sprayed (2.5 ml/pot), cucumber Sagami Hanjiro
[12] = Alternaria sooty spot on cabbage
[13] = Downy mildew on vine, 250 ppm spray
[14] = Gray mold on tomato, control value class
[15] = Late blight on tomato, control value class
[16] = Powdery mildew on barley, control value class
[17] = Anthracnose on cucumber, 250 ppm spray
[18] = Brown rust on wheat, control value class
[19] = Alternaria sooty spot on cabbage, control value class
[20] = Blast on rice, control value class

| SMILES | Test G control value [1, 9] | Test B control value [2, 10] | Test F control value [3, 10] | Test D control value [4, 10] | Test H control value [5, 11] | Test E control value [6, 10] | Test C control value [7, 10] | Test A control value [8, 10] | Test G control value [1, 13] | Test B control value [2, 14] | Test F control value [3, 15] | Test D control value [4, 16] | Test H control value [5, 17] | Test E control value [6, 18] | Test C control value [7, 19] | Test A control value [8, 20] | further results |
| --- | --- | --- | --- | --- | --- | --- | --- | --- | --- | --- | --- | --- | --- | --- | --- | --- | --- |
| CCCc1ccc(=O)n(CC(F)F)c1-c1c(F)cccc1F [compound 491] | L (50% or less control value) | H (more than 50% control value) | L (50% or less control value) | H (more than 50% control value) | L (50% or less control value) | H (more than 50% control value) | H (more than 50% control value) | L (50% or less control value) | – | – | – | – | – | – | – | – | – |
| CCn1c(-c2c(F)cc(F)cc2F)c(C(C)(CC(C)C)OC)cc(Cl)c1=O (racemic) [compound 164] | – | – | – | – | – | – | – | – | – | – | – | – | – | – | – | – | Test G control value class ([1]; 250 ppm spray): H (more than 50% control value); Test B control value class ([2]; Gray mold on tomato): H (more than 50% control value); Test F control value class ([3]; Late blight on tomato): L (50% or less control value); Test D control value class ([4]; Powdery mildew on barley): H (more than 50% control value); Test H control value class ([5]; 250 ppm spray): L (50% or less control value); Test E control value class ([6]; Brown rust on wheat): H (more than 50% control value); Test C control value class [7, 12]: H (more than 50% control value); Test A control value class ([8]; Blast on rice): H (more than 50% control value) |
| CCc1ccc(=O)n(CC)c1-c1ccc(F)cc1C [compound 347] | – | – | – | – | – | – | – | – | L (50% or less control value) | H (more than 50% control value) | L (50% or less control value) | L (50% or less control value) | L (50% or less control value) | L (50% or less control value) | H (more than 50% control value) | L (50% or less control value) | – |
| CCC(OC)c1cc(Cl)c(=O)n(CC)c1-c1c(F)cccc1F (centres unmarked) [Compound No. 25, 3-chloro-6-(2,6-difluorophenyl)-1-ethyl-5-(1-methoxypropyl)pyridin-2(1H)-one] | – | – | – | – | – | – | – | – | – | – | – | – | – | – | – | – | pest or weed control at 250 ppm [1]: > 50%; pest or weed control at 250 µg/mL [2]: > 50%; pest or weed control at 250 µg/mL [3]: < 50%; pest or weed control at 250 µg/mL [4]: > 50%; pest or weed control at 250 ppm [5]: > 50%; pest or weed control at 250 µg/mL ([6]; Brown rust on wheat): > 50%; pest or weed control at 250 µg/mL [7, 12]: > 50%; pest or weed control at 250 µg/mL [8]: > 50% |
| CCc1cc(Br)c(=O)n(C)c1-c1ccc(F)cc1Br [compound 350] | – | – | – | – | – | – | – | – | H (more than 50% control value) | H (more than 50% control value) | L (50% or less control value) | L (50% or less control value) | L (50% or less control value) | H (more than 50% control value) | H (more than 50% control value) | L (50% or less control value) | – |
| CCn1c(-c2c(F)cccc2F)c(C(O)C(C)C)cc(Cl)c1=O (centres unmarked) [Compound No. 53, 3-chloro-6-(2,6-difluorophenyl)-1-ethyl-5-(1-hydroxy-2-methylpropyl)pyridin-2(1H)-one] | – | – | – | – | – | – | – | – | – | – | – | – | – | – | – | – | pest or weed control at 250 ppm [1]: > 50%; pest or weed control at 250 µg/mL [2]: > 50%; pest or weed control at 250 µg/mL [3]: < 50%; pest or weed control at 250 µg/mL [4]: > 50%; pest or weed control at 250 ppm [5]: > 50%; pest or weed control at 250 µg/mL ([6]; Brown rust on wheat): > 50%; pest or weed control at 250 µg/mL [7, 12]: > 50%; pest or weed control at 250 µg/mL [8]: > 50% |
| CCCc1cc(Br)c(=O)n(C)c1-c1ccc(OC)cc1Cl [compound 336] | – | – | – | – | – | – | – | – | H (more than 50% control value) | H (more than 50% control value) | L (50% or less control value) | L (50% or less control value) | H (more than 50% control value) | H (more than 50% control value) | H (more than 50% control value) | H (more than 50% control value) | – |
| Cn1c(-c2c(F)cc(F)cc2F)c(C(C)(C)C)cc(Br)c1=O [compound 78] | – | – | – | – | – | – | – | – | – | – | – | – | – | – | – | – | Test G control value class ([1]; 250 ppm spray): L (50% or less control value); Test B control value class ([2]; Gray mold on tomato): H (more than 50% control value); Test F control value class ([3]; Late blight on tomato): L (50% or less control value); Test D control value class ([4]; Powdery mildew on barley): H (more than 50% control value); Test H control value class ([5]; 250 ppm spray): H (more than 50% control value); Test E control value class ([6]; Brown rust on wheat): H (more than 50% control value); Test C control value class [7, 12]: H (more than 50% control value); Test A control value class ([8]; Blast on rice): H (more than 50% control value) |
| CCOC(C)(c1cc(Cl)c(=O)n(C)c1-c1c(F)cc(OC)cc1F)C(C)C (centres unmarked) [compound 489] | L (50% or less control value) | H (more than 50% control value) | L (50% or less control value) | H (more than 50% control value) | H (more than 50% control value) | H (more than 50% control value) | H (more than 50% control value) | H (more than 50% control value) | – | – | – | – | – | – | – | – | – |
| CCn1c(-c2c(F)cccc2F)c(C(C)(O)C(C)C)ccc1=O (centres unmarked) [compound 521] | H (more than 50% control value) | H (more than 50% control value) | L (50% or less control value) | H (more than 50% control value) | L (50% or less control value) | H (more than 50% control value) | H (more than 50% control value) | L (50% or less control value) | – | – | – | – | – | – | – | – | – |
| CCn1c(-c2ccc(F)cc2Br)c(CC(C)C)cc(Cl)c1=O [compound 200] | – | – | – | – | – | – | – | – | H (more than 50% control value) | H (more than 50% control value) | H (more than 50% control value) | H (more than 50% control value) | H (more than 50% control value) | H (more than 50% control value) | H (more than 50% control value) | H (more than 50% control value) | – |
| CCn1c(-c2c(F)cc(F)cc2F)c(CN(C)C(C)C)cc(Cl)c1=O [compound 86] | – | – | – | – | – | – | – | – | – | – | – | – | – | – | – | – | Test G control value class ([1]; 250 ppm spray): L (50% or less control value); Test B control value class ([2]; Gray mold on tomato): L (50% or less control value); Test F control value class ([3]; Late blight on tomato): L (50% or less control value); Test D control value class ([4]; Powdery mildew on barley): L (50% or less control value); Test H control value class ([5]; 250 ppm spray): L (50% or less control value); Test E control value class ([6]; Brown rust on wheat): L (50% or less control value); Test C control value class [7, 12]: H (more than 50% control value); Test A control value class ([8]; Blast on rice): L (50% or less control value) |
| CCCc1ccc(=O)n(CCC)c1-c1c(F)cc(OC)cc1F [compound 442] | H (more than 50% control value) | L (50% or less control value) | L (50% or less control value) | H (more than 50% control value) | H (more than 50% control value) | H (more than 50% control value) | L (50% or less control value) | H (more than 50% control value) | – | – | – | – | – | – | – | – | – |
